Measurements from patent US20250032425A1, “FIRST IN CLASS USE OF ESTROGEN RECEPTOR BETA AGONISTS IN TREATING ANGELMAN SYNDROME AND RELEVANT AUTISM SPECTRUM DISORDERS” (BROWN UNIVERSITY, priority 2023, published 2025).
Entries after “also recorded” stand apart in the source; their conditions may differ.

Columns and labels:
[1] = system: iOPCs expressing Cas9 and a sgRNA targeting UBE3A; experiment: EdU incorporation in iOPCs with CRISPR/Cas9 UBE3A depletion (Lenti-sgUBE3A #1-3); format: cell-based, human; details: 10 μM; any of the sgRNAs
Description: The sgRNAs targeting UBE3A, and negative control were obtained from Applied Biological Materials Inc. Targeting sgRNA sequences against UBE3A are: sgRNA1, […]; sgRNA2, […]; sgRNA3, […]. These sgRNAs were integrated into the backbone of the negative control pLenti-U6-sgRNA-SFFV-Cas9-2A-Puro. All constructs were packaged into lentiviruses and concentrated by Lenti-X Concentrator (Takara Bio #631231). In each experiment, 5-10 μl of concentrated virus was administered into ˜70% confluent iOPCs cultures in 6-well plates. One day post-lentiviral transduction, iOPC cultures were treated with approximately 5 μg/ml Puromycin to isolate those iOPCs which are expressing Cas9/sgRNAs. Following a day of selection, the iOPCs were then seeded on gelatin-coated coverslips placed in 24-well plates at a density of 100,000 cells per well. After another day allowed for cell stabilization, treatment with either the vehicle control (DMSO), AC-186, DPN, or LY500307 commenced at a standard concentration of 10 μM. A final 24-hour period after this treatment saw the cells exposed to […] for three hours, preparing them for subsequent immunofluorescence staining.
The EdU labeling kit from ThermoFisher Scientific (#C10637) was used to trace cell proliferation by incubating iOPCs with 2 μM EdU for three hours before fixation. Following EdU incorporation, cells were fixed in 4% paraformaldehyde, blocked with normal serum, and stained with primary antibodies, Rabbit anti-Ki67 and Mouse anti-UBE3A. These steps were conducted according to the manual of the labeling kit and also detailed immunofluorescence staining protocols described below, to ensure specific detection of the proliferation marker Ki67 and the ubiquitin-protein ligase UBE3A in the cells for subsequent imaging analysis.

[2] = system: rat OPCs with normal UBE3A levels; experiment: Proliferation of rat OPCs with normal UBE3A levels; format: cell-based
UBE3A-deficient iOPCs = experiment: Ki67 (and PCNA) immunoblotting in UBE3A-knockdown iOPCs: compound screen and rescue of proliferation; format: cell-based, human; details: for EC50: Homo sapiens, iOPCs treated with siUBE3A, Ki67 immunoblotting normalized to siNC plus vehicle, read-out: EC50 for rescue of Ki67 expression; for Ki67 expression (FIG. 19G) / PCNA expression (FIG. 19G): siUBE3A cells, normalized to GAPDH
Description: Given the scarcity of knowledge regarding UBE3A function in oligodendrocyte biology, a comprehensive exploration of various cellular functions was performed, leveraging the high-throughput capabilities of the iPSC-based methodology (e.g., as described herein). We selected over 45 compounds with known targeted cellular actions (Table 1). These were chosen based on their documented effects on UBE3A, their ability to promote oligodendrocyte development and myelination, or their protective 10 roles in neural tissue. UBE3A expression was modulated using siRNA, achieving a controlled reduction that decreased OPC proliferation by approximately 50%, as evidenced by Ki67 protein levels.
iPSC Culturing and Generation of Induced Human Brain Cells Including Oligodendroglia, Neurons (IN), Astrocytes (iAs) and Microglia (iMG) The generation of iPSC-derived human oligodendrocyte precursor cells (iOPCs) was carried out according to a previously published protocol by Vulakh and Yang et al., 2023 (Characterizing the Neuron-Glial Interactions by the Co-cultures of Human iPSC-Derived Oligodendroglia and Neurons. Methods Mol. Biol. 2683), which itself was a modification of an earlier protocol by Assetta et al., 2020 (Generation of Human Neurons and Oligodendrocytes from Pluripotent Stem Cells for Modeling Neuron-Oligodendrocyte Interactions. J Vis Exp.). The process began with the control iPSCs, which is a well-characterized control reference line acquired from the NIH-funded iPSC Neurodegenerative Disease Initiative (INDI, (Ramos, D. M., Skarnes, W. C., Singleton, A. B., Cookson, M. R., and Ward, M. E. (2021). Tackling neurodegenerative diseases with genomic engineering: A new stem cell initiative from the NIH. Neuron 109, 1080-1083. 10.1016/j.neuron.2021.03.022)), distributed by the Jackson Laboratory. These iPSCs were maintained in mTeSR plus medium (StemCell Technologies, #05825) and expanded in Stem Flex medium (Fisher Scientific. #A3349401) for the induction of neural progenitor cells (INPC). The iNPCs were derived by treating iPSCs with a commercial SMAD inhibitor medium (StemCell Technologies, #08582) for 7 days (Week 1). Subsequently, NPCs were further induced to become OPCs by a 7-day incubation (Week 2) with a chemically-defined OPC medium: DMEM/F12 medium (Thermo Fisher, #11320033) supplemented by 10 ng/ml PDGF-AA (R&D Systems, #221-AA-025), 1 μM SAG (Tocris, #4366), […] N-Acetyl-Cysteine (Millipore Sigma, #A9165-5G), 20 ng/mL bFGF (R&D Systems, #233-FB-025/CF), 1% N2 supplement (Thermo Fisher, #17502048), and 1% B27 supplement (Thermo Fisher, #17504044). […] The additional incubation with OL medium for 7-14 days (Week 4-5) yielded mature, myelinating OLs.
The siRNAs targeting UBE3A (Thermo Fisher, #4390815 and #4390816), estrogen receptors (Thermo Scientific #145909 for ESRβ, #145539 for ESRα, and #4390824 for GPER), and negative control (Thermo Scientific, #AM4615) were obtained commercially. The 10-20 nM final concentration was used with Lipofectamine RNAiMAX transfection reagent (Thermo Scientific #13778075) and incubated for at least 48 hours before the treatments of therapeutic compounds or other reagents.
Cells were collected by fast spin down in centrifuge tubes before lysis in RIPA buffer (ThermoFisher, #89901) supplemented with proteinase inhibitor cocktail (Sigma-Aldrich, #5892791001) on ice. Lysates were then spun down at 15000 rpm for 10 mins, the supernatant was collected and mixed with 4× Laemmle sample buffer (Bio-Rad, #1610747) and cooked 10 mins before SDS-PAGE and transferred with Bio-Rad fast transfer system, the membranes were blocked for one hour in 1× Tris Buffered Saline (TBS) with 1% Casein buffer (Bio-Rad, #1610782) and incubated with primary antibodies overnight at 4 degrees. […]

Q: How did the “number of EdU+ cells” value [1] turn out when Oc1ccc(C2(c3ccccc3F)CCC(F)(F)CC2)cc1 [AC-186] was run?
A: Its value is “increased the number of EdU+ cells”.

Q: What about the “effect on OPCs with normal UBE3A levels” value [2] of the same compound?
A: Its value is “neither AC-186 nor DPN affected”.

Q: What about the “restoration of Ki67 expression in compound screen” value (UBE3A-deficient iOPCs; 10 μM, 24 hours, Ki67 immunoblotting normalized to siNC=1.0) of the same compound?
A: Its value is “restored; also recorded: effectively normalized proliferation levels; also recorded: Statistically significant; also recorded: capable of restoring Ki67 expression”.

Q: And the EC50 (UBE3A-deficient iOPCs; 24 hours)?
A: Its EC50 is about 16 nM.

Q: What about the “Ki67 expression (FIG. 19G)” value (UBE3A-deficient iOPCs; 10 μM, 24 hours) of the same compound?
A: The value was “increased expression”.

Q: What about the “PCNA expression (FIG. 19G)” value (UBE3A-deficient iOPCs; 10 μM, 24 hours) of the same compound?
A: Its value is “increased expression”.

Q: With N#CC(Cc1ccc(O)cc1)c1ccc(O)cc1 (stereo not drawn) [DPN, diarylpropionitrile, reference compound] as the compound, how does the “number of EdU+ cells” value [1] read?
A: Its value is “increased the number of EdU+ cells”.

Q: And the “effect on OPCs with normal UBE3A levels” value [2]?
A: The value was “neither AC-186 nor DPN affected”.

Q: What about the “impact of UBE3A loss on OPC proliferation (FIG. 18F, 19G)” value (UBE3A-deficient iOPCs; ERβ activators of different structural classes) of the same compound?
A: The value was “similarly mitigated the impact of UBE3A loss on OPC proliferation”.

Q: And the EC50 (UBE3A-deficient iOPCs; 24 hours)?
A: The EC50 was about 19 nM.

Q: And the “Ki67 expression (FIG. 19G)” value (UBE3A-deficient iOPCs; 10 μM, 24 hours)?
A: Its value is “increased expression”.

Q: And the “PCNA expression (FIG. 19G)” value (UBE3A-deficient iOPCs; 10 μM, 24 hours)?
A: Its value is “increased expression”.
